Assay results reported in patent publication US20230303486A1, “CYCLOBUTYL-UREA DERIVATIVES” (Idorsia Pharmaceuticals Ltd, priority 2020, published 2023).
Where two headings read alike, the source gives them in different places.

Assays:
[1] = test system: primary neuronal cultures from embryonic rat brains; experiment: Rat oscillation assay (FLIPR, neuronal calcium oscillations); format: cell-based
How it was run: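 E18 Wistar rat cortical neurons cultured 8–10 days, loaded with 1 µM Fluo-8 AM, then kept in Mg2+-free HEPES-buffered HBSS (2 mM CaCl2, pH 7.4) to drive synchronized calcium oscillations. Fluorescence read at 1 Hz over 500 sec with or without XE-991, compound added at 250 sec; second acquisition 20 min after addition.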

[2] = test system: audiogenic generalized convulsive seizures in DBA/2J mice; experiment: Audiogenic seizure-sensitive mouse model of generalized convulsive seizures; format: in vivo; conditions: 10 mg/kg po, challenge 1h
Procedure: Compounds were formulated in a 10% polyethylene glycol 400 (PEG 400) / 90% aqueous solution of 0.5 % methylcellulose (MC 0.5%). Firstly drugs are dissolved in PEG 400 and then suspended in MC 0.5 % for oral gavage at Xmg/5 mL/kg (X see table).
• 1. Procedure: Following two days of acclimatisation, auditory seizures are induced in male juvenile DBA/2J mice (22-24 days old; Janvier Labs, France). Each mouse is placed individually in the exposure chamber, an hemispheric acrylic glass dome (diameter: 50 cm) within a sound-attenuated box. The soundattenuated box is equipped with two house lights and a camera system (Fire-I from Unibrain) in order to observe and record the behavioral seizure response. After 60 seconds of habituation, the stimulus, a mixed frequency tone of 15-20 kHz at 110 dB (SASLab Lite, Avisoft Bioacoustics), is played from a speaker that is placed on the top center of the dome. […] Seizures are classified as following: stage 0, normal behavior; stage 1, wild running; stage 2, generalized clonus; stage 3, tonic extension of the hind limbs. • 2. Compounds testing: Acute compound effects on audiogenic generalized convulsive seizures are evaluated in independent groups of 8-10 mice randomly assigned. Following oral administration of compound or vehicle, the maximum seizure stage during sound exposure is assessed. Compounds are given 1 hour before exposure to the stimulus. Each mouse is exposed to the auditory stimulus only once and euthanized afterwards by CO2 inhalation.

SMILES	IC50 ([1]; 20 min after compound addition, AUC of fluorescence, read-out: FLIPR: IC50 [nM] 20 min) [nM]	IC50 ([1]; acute phase, ratio of AUC fluorescence before and after compound addition, rat cortical neurons, Mg-free buffer, read-out: FLIPR: IC50 [nM] acute) [nM]	Seizure stage [% vs. vehicle] [2] [% vs. vehicle]	IC50 ([1]; Rattus norvegicus, 20 min, 20 min after compound addition, AUC of fluorescence, read-out: FLIPR: IC50 [nM] 20 min) [nM]	IC50 ([1]; Rattus norvegicus, Cortical neurone, acute phase, ratio of AUC fluorescence before and after compound addition, rat cortical neurons, Mg-free buffer, read-out: FLIPR: IC50 [nM] acute) [nM]
O=C(NCc1cccc(C(F)(F)F)c1)NC1CC(C(F)F)C1 (single isomer, unassigned) [Example 53, 1-(3-(Difluoromethyl)Cyclobutyl)-3-(3-(Trifluoromethyl)Benzyl)Urea]	295	168	-78	–	–
O=C(NCc1cccc(C(F)(F)F)c1)NC12CC(C(F)F)(C1)C2 [Example 47, 1-(3-Difluoromethyl-Bicyclo[1.1.1]Pent-1-yl)-3-(3-Trifluoromethyl-Benzyl)-Urea]	–	–	-92	160	118
